Key:
Assay in all cases: relative viability (nuclei count vs DMSO), 5 days (fraction); higher = more cells survive
Erlotinib + Crizotinib = compound: C#Cc1cccc(Nc2ncnc3cc(OCCOC)c(OCCOC)cc23)c1 [Erlotinib] + C[C@@H](Oc1cc(-c2cnn(C3CCNCC3)c2)cnc1N)c1c(Cl)ccc(F)c1Cl [Crizotinib] (partner 1 µM)
Summary of the method: (§1)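 Medians of duplicate plates are given as relative viability. That measure is the nuclei count in treated wells divided by the count in vehicle wells. Counts were taken on 4× images of lung cancer cell lines in 1536-well plates, 5 days after pin-tool dosing the day after seeding with one drug alone or a fixed anchor-drug dose plus five library-drug doses (not always all listed) in √10 steps.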

Erlotinib + Dasatinib = compound: C#Cc1cccc(Nc2ncnc3cc(OCCOC)c(OCCOC)cc23)c1 [Erlotinib] + Cc1nc(Nc2ncc(C(=O)Nc3c(C)cccc3Cl)s2)cc(N2CCN(CCO)CC2)n1 [Dasatinib] (partner 0.075 µM)
Summary of the method: as §1

Erlotinib + Phenformin = compound: C#Cc1cccc(Nc2ncnc3cc(OCCOC)c(OCCOC)cc23)c1 [Erlotinib] + N=C(N)NC(=N)NCCc1ccccc1 [Phenformin] (partner 250 µM)
Summary of the method: as §1

Erlotinib + AZD7762 = compound: C#Cc1cccc(Nc2ncnc3cc(OCCOC)c(OCCOC)cc23)c1 [Erlotinib] + NC(=O)Nc1cc(-c2cccc(F)c2)sc1C(=O)N[C@H]1CCCNC1 [AZD7762] (partner 0.2 µM)
Summary of the method: as §1

Erlotinib + Vorinostat = compound: C#Cc1cccc(Nc2ncnc3cc(OCCOC)c(OCCOC)cc23)c1 [Erlotinib] + O=C(CCCCCCC(=O)Nc1ccccc1)NO [Vorinostat] (partner 1 µM)
Summary of the method: as §1

Cell Line	relative viability (Erlotinib + Crizotinib; first compound 0.02 µM)	relative viability (Erlotinib + Crizotinib; first compound 0.2 µM)	relative viability (Erlotinib + Crizotinib; first compound 0.6325 µM)	relative viability (Erlotinib + Crizotinib; first compound 2 µM)	relative viability (Erlotinib + Dasatinib; first compound 0.02 µM)	relative viability (Erlotinib + Dasatinib; first compound 0.2 µM)	relative viability (Erlotinib + Dasatinib; first compound 0.6325 µM)	relative viability (Erlotinib + Dasatinib; first compound 2 µM)	relative viability (Erlotinib + Phenformin; first compound 0.02 µM)	relative viability (Erlotinib + Phenformin; first compound 0.2 µM)	relative viability (Erlotinib + Phenformin; first compound 0.6325 µM)	relative viability (Erlotinib + Phenformin; first compound 2 µM)	relative viability (Erlotinib + AZD7762; first compound 0.02 µM)	relative viability (Erlotinib + AZD7762; first compound 0.2 µM)	relative viability (Erlotinib + AZD7762; first compound 0.6325 µM)	relative viability (Erlotinib + AZD7762; first compound 2 µM)	relative viability (Erlotinib + Vorinostat; first compound 0.02 µM)	relative viability (Erlotinib + Vorinostat; first compound 0.2 µM)	relative viability (Erlotinib + Vorinostat; first compound 0.6325 µM)	relative viability (Erlotinib + Vorinostat; first compound 2 µM)
NCI-H2405	0.957	0.838	0.958	0.717	0.214	0.224	0.201	0.195	0.449	0.347	0.401	0.404	0.749	0.669	0.774	0.652	1.27	1.1	1.1	0.917
NCI-H3122	0.287	0.262	0.258	0.241	0.799	0.453	0.903	0.877	0.361	0.388	0.392	0.377	0.948	1.05	1	–	0.93	1.14	1.05	0.953
PC-3 [JPC-3]	0.887	0.409	0.324	0.377	0.937	0.627	0.352	0.29	0.445	0.367	0.268	0.291	0.639	0.522	0.415	0.356	–	0.441	0.351	0.362
PC-14	0.651	0.278	0.23	0.224	0.0626	0.0332	0.0591	0.0181	0.278	0.171	0.177	0.139	0.206	0.178	0.12	0.13	0.428	0.0858	0.0926	0.061
RERF-LC-KJ	0.85	0.837	0.781	0.645	0.89	0.658	0.662	0.583	0.393	0.372	0.311	0.337	0.846	0.944	0.949	0.608	0.716	0.605	0.624	0.453

Reference: the supplement of paper PMC10307832
